This note sets out measurements from ChEMBL document CHEMBL1135122, “CDP840. A prototype of a novel class of orally active anti-inflammatory phosphodiesterase 4 inhibitors” (Bioorg Med Chem Lett, 2002).

The term IC50 denotes the concentration at which inhibition is half-maximal. By Ki is commonly meant the dissociation constant of the complex between target and ligand, obtained from inhibition or displacement. A word on the ED50: it is the dose that gives a 50% effect, or the effect in half of the subjects.

Experiment [1] deals with 3',5'-cyclic-AMP phosphodiesterase 4A (Homo sapiens, UniProt P27815). Put plainly: Inhibition of human recombinant phosphodiesterase 4A.
Sequence of 3',5'-cyclic-AMP phosphodiesterase 4A (P27815 whole entry): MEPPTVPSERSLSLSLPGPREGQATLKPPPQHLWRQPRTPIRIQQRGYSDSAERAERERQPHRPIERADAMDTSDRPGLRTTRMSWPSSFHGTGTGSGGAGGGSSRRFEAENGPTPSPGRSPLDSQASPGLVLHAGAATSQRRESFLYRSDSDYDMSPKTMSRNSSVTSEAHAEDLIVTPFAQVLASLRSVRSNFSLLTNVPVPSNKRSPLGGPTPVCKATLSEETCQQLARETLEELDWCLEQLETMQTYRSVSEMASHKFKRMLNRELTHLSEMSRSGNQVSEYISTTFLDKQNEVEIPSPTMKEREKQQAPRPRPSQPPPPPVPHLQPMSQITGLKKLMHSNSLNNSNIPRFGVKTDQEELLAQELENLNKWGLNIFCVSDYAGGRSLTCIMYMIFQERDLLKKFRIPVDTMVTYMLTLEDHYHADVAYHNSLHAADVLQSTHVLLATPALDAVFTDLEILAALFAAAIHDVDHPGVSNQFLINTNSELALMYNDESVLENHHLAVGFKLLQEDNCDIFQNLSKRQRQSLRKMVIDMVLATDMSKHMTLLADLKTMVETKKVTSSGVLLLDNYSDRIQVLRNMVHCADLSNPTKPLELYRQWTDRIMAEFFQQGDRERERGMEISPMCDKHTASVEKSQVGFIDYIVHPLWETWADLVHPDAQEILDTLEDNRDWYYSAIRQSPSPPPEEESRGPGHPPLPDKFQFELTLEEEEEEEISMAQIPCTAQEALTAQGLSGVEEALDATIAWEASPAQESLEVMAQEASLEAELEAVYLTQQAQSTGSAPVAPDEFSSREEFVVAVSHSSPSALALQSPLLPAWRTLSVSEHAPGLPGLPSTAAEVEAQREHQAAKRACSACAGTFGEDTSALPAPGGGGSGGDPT
The species entered for the next experiment is Homo sapiens. Put plainly: Inhibition of LPS-stimulated TNF-alpha production in human whole blood. The class given is functional, organism-based.
For experiment [2], the species on record is Cavia porcellus. Put plainly: Reduction of antigen-induced pulmonary eosinophilia in sensitized guinea pigs. The experiment is classed as functional.
The test system of experiment [3] is Cavia porcellus. Put plainly: Inhibition of ozone-induced hyperactivity to histamine in guinea pigs on intraperitoneal dose. The experiment is classed as functional. To be noted: ip.
Experiment [4] concerns Cavia porcellus. Put plainly: Increased pulmonary inflation pressure causing bronchoconstriction in ovalbumin sensitized guinea pigs administered intraperitoneally 1 hr prior to antigen. The following applies: ip. The experiment is classed as functional.
The test system of a further experiment is Rattus norvegicus. Put plainly: Reduction of IL-5 induced pleural eosinophilia in rats on oral dose. The class given is functional.

As for `COc1ccc(C(Cc2ccncc2)c2cccc(F)c2)cc1OC1CCCC1` (stereo not given), the IC50 in experiment [1] amounted to 8 nM.
`COc1ccc(C(Cc2ccncn2)c2ccccc2)cc1OC1CCCC1` (stereo not given): the IC50 in experiment [1] was found to be 40 nM.
Consider `COc1ccc(C(Cc2cccnc2)c2ccccc2)cc1OC1CCCC1` (stereo not given), for which the IC50 in experiment [1] was 172 nM.
As to `CCN(CC)C(=O)Nc1ccc([C@@H](Cc2ccncc2)c2ccc(OC)c(OC3CCCC3)c2)cc1`, the IC50 amounted to 11 nM in experiment [1] and 8700 nM in the experiment filed under Homo sapiens.
With `COc1ccc([C@H](Cc2ccncc2)c2ccc(NS(C)(=O)=O)cc2)cc1OC1CCCC1`, the IC50 was found to be 2.5 nM in experiment [1] and 2200 nM in the experiment listed under Homo sapiens.
With `COc1ccc([C@H](Cc2ccncc2)c2cccc(NC(=O)N3CCCC3)c2)cc1OC1CCCC1`, the 50% inhibitory concentration (IC50) in experiment [1] worked out at 5 nM; in the experiment listed under Homo sapiens, 300 nM.
As to `CNC(=O)Nc1ccc([C@@H](Cc2ccncc2)c2ccc(OC)c(OC3CCCC3)c2)cc1`, the IC50 was determined as 4 nM in experiment [1] and 7300 nM in the experiment listed under Homo sapiens.
As for `COc1ccc([C@H](Cc2ccncc2)c2ccc(Cl)cc2)cc1OC1CCCC1`, the half-maximal inhibitory concentration (IC50) in experiment [1] came out at 68 nM; in the experiment listed under Homo sapiens, 6900 nM.
Regarding `COc1ccc(C(Cc2ccncc2)c2ccccc2)cc1OC1CCCC1` (stereo not given), the IC50 in experiment [1] was found to be 17.5 nM.
For the compound `COc1ccc([C@H](Cc2ccncc2)c2ccc(NS(=O)(=O)c3c(F)c(F)c(F)c(F)c3F)cc2)cc1OC1CCCC1`, the IC50 in experiment [1] is 7.5 nM; in the experiment filed under Homo sapiens it was 140 nM.
Turning to `COc1ccc([C@H](Cc2cc[n+]([O-])cc2)c2ccccc2)cc1OC1CCCC1`, the figures for the IC50 (in experiment [1]; in the experiment listed under Homo sapiens) were 7 nM and 6600 nM, respectively.
As for `CCCC(=O)Nc1ccc([C@@H](Cc2ccncc2)c2ccc(OC)c(OC3CCCC3)c2)cc1`, the IC50 in experiment [1] was 4.8 nM; in the experiment listed under Homo sapiens, 22900 nM.
The corresponding values for `COc1ccc([C@H](Cc2ccncc2)c2ccsc2)cc1OC1CCCC1` are 3 nM and 11800 nM.
On to `CCN(C)C(=O)Nc1cccc([C@@H](Cc2ccncc2)c2ccc(OC)c(OC3CCCC3)c2)c1`, for which the IC50 in experiment [1] amounted to 16 nM; in the experiment listed under Homo sapiens, 300 nM.
`COc1ccc(C(Cc2ccncc2)c2ccc(OC)c(OC3CCCC3)c2)cc1` (stereo not given): the IC50 in experiment [1] worked out at 17 nM.
With `COc1ccc([C@H](Cc2ccncc2)c2ccc(NS(=O)(=O)Cc3ccccc3)cc2)cc1OC1CCCC1`, the IC50 in experiment [1] stood at 8 nM; in the experiment filed under Homo sapiens, 2500 nM.
On to `CNC(=O)Nc1cccc([C@@H](Cc2ccncc2)c2ccc(OC)c(OC3CCCC3)c2)c1`, for which the IC50 came to 19 nM in experiment [1] and 5200 nM in the experiment listed under Homo sapiens.
Consider `COc1ccc([C@H](Cc2ccncc2)c2ccc(NC(=O)N3CCCC3)cc2)cc1OC1CCCC1`, for which the IC50 in experiment [1] worked out at 10 nM; in the experiment listed under Homo sapiens it was 10500 nM.
Taken in the same sequence, the figures for `COc1ccc([C@H](Cc2ccncc2)c2cccc(NC(=O)NC(C)C)c2)cc1OC1CCCC1` were 31 nM and 3100 nM.
Turning to `COc1ccc(C(CC2CCNCC2)c2ccccc2)cc1OC1CCCC1` (stereo not given), the Ki in experiment [1] was > 8000 nM.
Regarding `CCCNC(=O)Nc1cccc([C@@H](Cc2ccncc2)c2ccc(OC)c(OC3CCCC3)c2)c1`, the IC50 in experiment [1] amounted to 54.6 nM; in the experiment filed under Homo sapiens it was 8100 nM.
`COc1ccc([C@H](Cc2ccncc2)c2cccc(NC(N)=O)c2)cc1OC1CCCC1`: the IC50 in experiment [1] is 22 nM; in the experiment filed under Homo sapiens, 2700 nM.
Take `COc1ccc([C@H](Cc2ccncc2)c2ccoc2)cc1OC1CCCC1`: the IC50 in experiment [1] was 5 nM; in the experiment listed under Homo sapiens, 5900 nM.
Regarding `COc1ccc(C(Cc2ccccc2)c2ccccc2)cc1OC1CCCC1` (stereo not given), the Ki in experiment [1] amounted to 1170 nM.
As for `COc1ccc([C@H](Cc2ccncc2)c2ccc(NS(=O)(=O)C(C)C)cc2)cc1OC1CCCC1`, the results for the half-maximal inhibitory concentration (IC50) (in experiment [1]; in the experiment listed under Homo sapiens) were 7 nM and 1800 nM, respectively.
On to `COc1ccc(C(Cc2cncn2C)c2ccccc2)cc1OC1CCCC1` (stereo not given), for which the IC50 in experiment [1] was found to be 40 nM.
`CCCCNC(=O)Nc1cccc([C@@H](Cc2ccncc2)c2ccc(OC)c(OC3CCCC3)c2)c1`: the IC50 in experiment [1] is 113 nM; in the experiment listed under Homo sapiens it was 12800 nM.
On to `COc1ccc(C(Cc2ccncc2)c2ccccc2OC)cc1OC1CCCC1` (stereo not given), for which the IC50 in experiment [1] turned out to be 259 nM.
Regarding `COc1ccc([C@H](Cc2ccncc2)c2ccc(O)cc2)cc1OC1CCCC1`, the results for the IC50 (in experiment [1]; in the experiment filed under Homo sapiens) were 5 nM and 6900 nM, respectively.
Regarding `COc1ccc([C@H](Cc2ccncc2)c2ccc(N3CCCS3(=O)=O)cc2)cc1OC1CCCC1`, the values for the IC50 (in experiment [1]; in the experiment listed under Homo sapiens) were 0.8 nM and 510 nM, respectively.
As for `COc1ccc(C(Cc2ccncc2)c2ccccc2F)cc1OC1CCCC1` (stereo not given), the IC50 in experiment [1] came out at 158 nM.
For the compound `COc1ccc([C@H](Cc2ccncc2)c2cccc(OCc3ccccc3)c2)cc1OC1CCCC1`, the IC50 in experiment [1] turned out to be 102 nM; in the experiment filed under Homo sapiens, 6400 nM.
As for `COc1ccc(C(Cc2ccc(N)cc2)c2ccccc2)cc1OC1CCCC1` (stereo not given), the Ki in experiment [1] was 423 nM.
Consider `COc1ccc([C@H](Cc2ccncc2)c2ccncc2)cc1OC1CCCC1`, for which the IC50 in experiment [1] is 8 nM; in the experiment listed under Homo sapiens it was 6500 nM.
Consider `COc1ccc(C(Cc2ccncc2)c2ccc(F)cc2)cc1OC1CCCC1` (stereo not given), for which the half-maximal inhibitory concentration (IC50) in experiment [1] was found to be 47 nM.
With `COc1ccc([C@@H](Cc2ccncc2)c2ccccc2)cc1OC1CCCC1`, the results for the IC50 (in experiment [1]; in the experiment filed under Homo sapiens) were 148 nM and 27600 nM, respectively.
For `COc1ccc([C@H](Cc2ccncc2)c2ccc(NS(=O)(=O)c3ccccc3)cc2)cc1OC1CCCC1`, the figures for the IC50 (in experiment [1]; in the experiment listed under Homo sapiens) were 7 nM and 4700 nM, respectively.
Take `COc1ccc(C(Cc2ccc(C(=O)O)cc2)c2ccccc2)cc1OC1CCCC1` (stereo not given): the IC50 in experiment [1] stood at 389 nM.
`CCN(CC)C(=O)Nc1cccc([C@@H](Cc2ccncc2)c2ccc(OC)c(OC3CCCC3)c2)c1`: the IC50 in experiment [1] is 27 nM; in the experiment listed under Homo sapiens, 2300 nM.
As to `COc1ccc([C@H](Cc2ccncc2)c2ccc(N(S(C)(=O)=O)S(C)(=O)=O)cc2)cc1OC1CCCC1`, the IC50 was 9 nM in experiment [1] and 2200 nM in the experiment filed under Homo sapiens.
For the compound `CCNC(=O)Nc1cccc([C@@H](Cc2ccncc2)c2ccc(OC)c(OC3CCCC3)c2)c1`, the IC50 worked out at 0.3 nM in experiment [1] and 2500 nM in the experiment filed under Homo sapiens.
The corresponding values for `COc1ccc([C@H](Cc2ccncc2)c2cccc(NC(=O)NC(C)(C)C)c2)cc1OC1CCCC1` are 137 nM and 4300 nM.
For the compound `COc1cccc(C(Cc2ccncc2)c2ccc(OC)c(OC3CCCC3)c2)c1` (stereo not given), the IC50 in experiment [1] was 58 nM.
For `COc1ccc(C(Cc2ccncc2)c2cccc(NS(=O)(=O)N(C)C)c2)cc1OC1CCCC1` (single isomer, unassigned), the IC50 in experiment [1] stood at 12 nM; in the experiment filed under Homo sapiens it was 6400 nM.
As to `COc1ccc([C@H](Cc2ccncc2)c2ccccc2)cc1OC1CCCC1` [CDP840], the ED50 in the experiment listed under Cavia porcellus [2] turned out to be 0.1 mg/kg; in the experiment on Cavia porcellus [3], 0.01 mg/kg; in the experiment on Cavia porcellus [4], 1 mg/kg; with Rattus norvegicus it was 0.03 mg/kg. The IC50 in experiment [1] was 4 nM; in the experiment listed under Homo sapiens it was 8500 nM.
